{
  "source": "patent US9637787B2",
  "about": "“Culture based screening assay and methods of use thereof to identify agents which modulate tumor development, invasion and differentiation” (The Trustees of the University of Pennsylvania, priority 2007, dated 2017)",
  "key": {"periostin": {"system": "periostin", "test": "Western blot of periostin expression in cell lysates", "format": "cell-based, human", "conditions": "EPC2-hTERT-EGFR-p53^R175H cells, 24 h treatment; EGF 10 ng/μl, AG1478 1 μM, 5-iminodaunorubicin 3 μM", "method": "FIG. 24: Periostin expression is dependent upon EGFR signaling and mutant p53 activation (A) Western blot analysis of periostin (90 kDa) in EPC2-hTERT-EGFR-p53^R175H, EPC2-hTERT-puro-neo, EPC2-hTERT-EGFR-neo and EPC2-hTERT-neo-p53^R175H cells. (B) Western blot analysis of periostin expression in EPC2-hTERT-EGFR-p53^R175H cell lysates after 24 h treatment with EGF (10 ng/μl), EGFR inhibitor AG1478 (1 μM) and 5-iminodaunorubicin (3 μM). Immunoblotting for total EGFR and phosphorylated EGFR to confirm inhibition of EGFR as well as p21 to indicate restoration of wildtype p53 signaling. β-actin was used as a loading control. Densitometry ratios of periostin/β-actin were calculated and recorded.\n(§1) For Western blot analysis, cells were lysed in lysis buffer (10 mM Tris-HCl, pH 7.4, 150 mM NaCl, 1% Nonidet P-40, 0.1% sodium deoxycholate, 0.1% SDS, 1 mM EDTA, 2 mM sodium orthovanadate and a protease inhibitor tablet, Roche Molecular Biochemicals, Indianapolis, Ind.). Protein concentration was determined by the Bio-Rad protein assay (Bio-Rad, Hercules, Calif.). 15 μg of protein were run on a 4-12% SDS-PAGE gel (Invitrogen™) and transferred to a polyvinylidene difluoride membrane (Immobilon-P®, Millipore, Bedford, Mass.). Membranes were blocked in 5% nonfat milk (Bio-Rad) in TBS-T (10 mM Tris, 150 mM NaCl, pH 8.0 and 0.1% Tween® 20) for 1 h at room temperature. Membranes were then probed with primary antibody diluted in 5% milk in TBS-T overnight at 4° C., washed with TBS-T and incubated with anti-mouse or anti-rabbit horseradish peroxidase-conjugated secondary antibodies (GE Biotech, 1:3000 in TBS-T) for 1 h at room temperature and washed in TBS-T. The signal was visualized using an enhanced chemiluminescence solution (ECL Plus, Amersham™ Pharmacia Biotech) and exposed to Blue Lite Autorad film (ISC-BioExpress, Kaysville, Utah). To confirm secreted periostin expression, conditioned media was collected and protein concentration was determined by Bio-Rad protein assay (Bio-Rad) and Western blot analysis was performed as described above."}, "Met": {"system": "Met", "test": "Met phosphorylation in EPC-hTERT-EGFR-p53^R175H cells", "format": "cell-based, human", "conditions": "data not shown", "method": "as §1"}, "MMP-1": {"molecular_target": "T1, MMP-1 (Homo sapiens, UniProt P03956)", "T1 sequence (P03956 100-469)": "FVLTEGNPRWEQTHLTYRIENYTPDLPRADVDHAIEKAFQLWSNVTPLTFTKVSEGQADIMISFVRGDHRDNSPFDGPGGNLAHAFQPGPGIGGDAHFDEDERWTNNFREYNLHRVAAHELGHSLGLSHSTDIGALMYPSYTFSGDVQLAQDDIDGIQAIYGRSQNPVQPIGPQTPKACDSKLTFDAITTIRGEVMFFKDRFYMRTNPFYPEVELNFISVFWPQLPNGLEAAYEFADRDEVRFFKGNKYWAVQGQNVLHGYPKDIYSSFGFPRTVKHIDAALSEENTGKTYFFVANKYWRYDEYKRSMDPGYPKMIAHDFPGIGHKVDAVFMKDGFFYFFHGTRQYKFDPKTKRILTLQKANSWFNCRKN", "conditions": "cited from earlier work"}, "[1]": {"system": "EPC-hTERT-EGFR-p53^R175H cells", "test": "matrix invasion in 3D organotypic culture above FEF3 fetal esophageal fibroblast matrices", "format": "cell-based, human", "conditions": "100 nM", "method": "(§2) (A) Fluorescence measurements representing invading cells on the bottom filters of a Matrigel®-coated Boyden chamber where HGF was added as the chemoattractant of EPC-hTERT-EGFR-p53^R175H cells seeded atop the filter. (B) Level of secreted HGF in conditioned media from FEF3 fibroblasts±HGF siRNA set up in organotypic culture and detected by ELISA. (C) H&E sections of organotypic cultures of FEF3 fibroblasts±HGF siRNA seeded into the matrix with EPC-hTERT-EGFR-p53^R175H grown above (scale bar=100 μm). (D) Quantification of invasion in entire organotypic culture imaged in (C). Error bars represent ±SEM and * indicates p values ≦0.05 when compared to the control.\n(A) Western blot of EPC-hTERT-EGFR-p53^R175HshMet or EPC-hTERT-EGFR-p53^R175H shScramble cells (two independent lines of each genotype) to determine extent of Met knockdown of total protein and activation state. (B) H&E sections of organotypic culture of EPC-hTERT-EGFR-p53^R175H-shMet or EPC-hTERT-EGFRp53^R175H-shScramble cells seeded above matrices containing FEF3 fetal esophageal fibroblasts. (C) H&E sections of organotypic cultures of EPC-hTERT-EGFR-p53^R175H cells seeded above FEF3 matrices treated with DMSO vehicle (days 7-15) or 100 nM PHA665752 (days 7-15 or day 11-15) as indicated. […]"}, "[2]": {"system": "EPC-hTERT-EGFR-p53^R175H cells", "test": "Matrigel-coated Boyden chamber invasion assay with chemoattractant", "format": "cell-based, human", "conditions": "HGF added as chemoattractant", "method": "as §2\nFor migration assays, Boyden chambers (8 μm pore size, FluoroBlok-HTS inserts, BD Biosciences) were used. For invasion assays, insert-plates (8 μm pore size, FluoroBlock, 24 well insert) coated with BD Matrigel® matrix were used. Inserts were placed in a 24-well plate containing Full KSFM medium with serum to stimulate cell migration and invasion. 5×10^4 cells in serum-free medium were placed in each insert. Twenty-four hours later, migrating or invading cells were labeled with 4 μg/ml Calcein AM dye (Invitrogen™) in HANKS buffer for 1 hour. The labeled cells were then read on a Synergy HT multi-detection microplate reader (BIOTEK®, Woburn, Mass.) at 485 nm excitation and 528 nm detection. […]"}},
  "note": "pIC50: −log10 of the molar value.",
  "data": [
    {"molecule": "COc1cccc2c1C(=N)c1c(O)c3c(c(O)c1C2=O)C[C@@](O)(C(C)=O)C[C@@H]3O[C@H]1C[C@H](N)[C@H](O)[C@H](C)O1", "note": "[5-iminodaunorubicin]", "values": [
      {"measurement": "periostin protein expression", "setting": "periostin", "result": "decreased"}
    ]},
    {"molecule": "COc1cc2ncnc(Nc3cccc(Cl)c3)c2cc1OC", "note": "[AG1478]", "values": [
      {"measurement": "periostin protein expression", "setting": "periostin", "result": "decreased"},
      {"measurement": "Met phosphorylation", "setting": "Met", "result": "nor was Met phosphorylation inhibited"}
    ]},
    {"molecule": "CCN(CC)Cc1cc(C)c(N(Cc2ccccc2)S(=O)(=O)c2ccc(OC)cc2)c(C(=O)NO)c1", "note": "[MMP-9 inhibitor]", "values": [
      {"measurement": "pIC50", "setting": "MMP-1", "result": 5.98}
    ]},
    {"molecule": "Cc1[nH]c(/C=C2\\C(=O)Nc3ccc(S(=O)(=O)Cc4c(Cl)cccc4Cl)cc32)c(C)c1C(=O)N1CCC[C@@H]1CN1CCCC1", "note": "[PHA665752]", "values": [
      {"measurement": "invasion of EPC-hTERT-EGFR-p53^R175H cells in organotypic culture", "setting": "[1]; treated for seven days following epithelial cell seeding (days 7-15)", "result": "inhibited invasion"},
      {"measurement": "invasion of EPC-hTERT-EGFR-p53^R175H cells in organotypic culture", "setting": "[1]; treated for the final four days when invasion occurs (day 11-15)", "result": "inhibited invasion"}
    ]},
    {"molecule": "EGF: epidermal growth factor used to stimulate EGFR", "values": [
      {"measurement": "periostin protein expression", "setting": "periostin", "result": "increased periostin protein expression"}
    ]},
    {"molecule": "HGF: Recombinant human HGF purchased from R&D Systems", "values": [
      {"measurement": "levels of invading cells", "setting": "[2]", "result": "significantly increased levels of invading"}
    ]}
  ]
}
